# Experimental data from patent US12187709B2 (Genentech, Inc., priority 2021, dated 2025).
# Legend:
# [1] = biological target: Cbl-b (Homo sapiens (Human), UniProt Q13191); experiment: Cbl-b LCK Ub TR-FRET assay (Cbl-b Lck HTRF); assay type: biochemical; conditions: for IC50: Cbl-b LCK Ub TR-FRET, Example 121; for (fold-selectivity) Cbl-b and C-Cbl Selectivity: ratio C-cbl Lck HTRF IC50 / Cbl-b Lck HTRF IC50
# Outline: (§1)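 After the ubiquitination reaction, detection mixture was added and plates incubated 20 min at room temperature before reading. IC50 values were calculated with wells lacking LCK as the low control and DMSO as the high control.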
# [2] = biological target: c-Cbl (Homo sapiens (Human), UniProt P22681); experiment: C-Cbl LCK Ub TR-FRET assay (C-cbl Lck HTRF); assay type: biochemical
# Chain of c-Cbl (P22681 47-435): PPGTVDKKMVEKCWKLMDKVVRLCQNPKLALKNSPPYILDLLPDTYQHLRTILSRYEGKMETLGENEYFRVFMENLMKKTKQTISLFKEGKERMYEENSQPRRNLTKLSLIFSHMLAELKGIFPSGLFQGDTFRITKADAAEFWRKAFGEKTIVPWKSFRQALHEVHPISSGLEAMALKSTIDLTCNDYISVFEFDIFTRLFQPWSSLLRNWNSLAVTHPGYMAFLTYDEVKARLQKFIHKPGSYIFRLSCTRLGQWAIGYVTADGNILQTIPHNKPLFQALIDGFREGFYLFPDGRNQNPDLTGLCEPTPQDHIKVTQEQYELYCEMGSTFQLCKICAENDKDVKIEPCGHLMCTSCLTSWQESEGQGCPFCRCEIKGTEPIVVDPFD
# Outline: as §1
# [3] = biological target: Human Cbl-b (residues 40-426) (Homo sapiens (Human), UniProt Q13191); experiment: Cbl-b SPR assay; assay type: binding; conditions: for Fold of selectivity: C-cbl SPR Kd vs Cbl-b SPR Kd; for Kd: SPR, 20° C.
# Chain of Human Cbl-b (residues 40-426) (Q13191 40-426): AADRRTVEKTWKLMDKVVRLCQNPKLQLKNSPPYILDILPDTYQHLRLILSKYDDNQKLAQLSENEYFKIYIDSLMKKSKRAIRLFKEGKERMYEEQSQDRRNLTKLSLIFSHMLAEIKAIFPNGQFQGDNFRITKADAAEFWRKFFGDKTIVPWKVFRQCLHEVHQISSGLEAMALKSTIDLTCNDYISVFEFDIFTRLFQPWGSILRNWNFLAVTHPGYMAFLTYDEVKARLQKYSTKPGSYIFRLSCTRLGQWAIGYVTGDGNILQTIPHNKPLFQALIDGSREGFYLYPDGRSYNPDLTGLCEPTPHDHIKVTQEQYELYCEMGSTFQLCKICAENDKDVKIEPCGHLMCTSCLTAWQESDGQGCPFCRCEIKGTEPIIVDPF
# Outline: (§2)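 Binding is measured by surface plasmon resonance against both isoforms, with double referencing and 1:1 kinetic fitting. Dissociation time is tuned to 4-5 half-lives.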
# [4] = biological target: c-Cbl (residues 47-435) (Homo sapiens (Human), UniProt P22681); experiment: c-Cbl SPR assay; assay type: binding; conditions: 20° C.
# Chain of c-Cbl (residues 47-435) (P22681 47-435): as the sequence (P22681 47-435) above
# Outline: as §2
# Chain of Cbl-b (Q13191 40-426): as the sequence (Q13191 40-426) above
Compound,IC50 [1] [nM],(fold-selectivity) Cbl-b and C-Cbl Selectivity [1] [x],IC50 [2] [nM],Fold of selectivity [3] [×],Kd [3] [nM],Kd [4] [nM]
"CO[C@H]1C[C@](c2cccc(N3Cc4c(cc(CNCC5(C)CC5(F)F)cc4C(F)(F)F)C3=O)c2)(c2nncn2C)C1 (stereo partly drawn) [Compound 501, 6-((((2,2-difluoro-1-methylcyclopropyl)methyl)amino)methyl)-2-(3-((1r,3r)-3-methoxy-1-(4-methyl-4H-1,2,4-triazol-3-yl)cyclobutyl)phenyl)-4-(trifluoromethyl)isoindolin-1-one]",11,4.8,52,16,4.6,81
"CO[C@H]1C[C@](c2cccc(N3Cc4c(cc(CN[C@@H]5C[C@H]5C)cc4C(F)(F)F)C3=O)c2)(c2nncn2C)C1 [Compound 502, 2-(3-((1r,3R)-3-methoxy-1-(4-methyl-4H-1,2,4-triazol-3-yl)cyclobutyl)phenyl)-6-((((1R,2R)-2-methylcyclopropyl)amino)methyl)-4-(trifluoromethyl)isoindolin-1-one]",9.4,4.1,39,14,5,69
"CO[C@H]1C[C@](c2cccc(N3Cc4c(cc(CNC5CC6(C5)CC6F)cc4C(F)(F)F)C3=O)c2)(c2nncn2C)C1 (stereo partly drawn) [Compound 504, 6-(((1-fluorospiro[2.3]hexan-5-yl)amino)methyl)-2-(3-((1r,3r)-3-methoxy-1-(4-methyl-4H-1,2,4-triazol-3-yl)cyclobutyl)phenyl)-4-(trifluoromethyl)isoindolin-1-one]",13,5.1,68,16,5.7,90
"CO[C@H]1C[C@](c2cccc(N3Cc4c(cc(CNCC5(CF)CCC5)cc4C(F)(F)F)C3=O)c2)(c2nncn2C)C1 [Compound 507, 6-((((1-(fluoromethyl)cyclobutyl)methyl)amino)meth-yl)-2-(3-((1r,3r)-3-methoxy-1-(4-methyl-4H-1,2,4-triazol-3-yl)cyclobutyl)phenyl)-4-(trifluoromethyl)isoindolin-1-one]",9.3,4.5,42,15,3.5,52

# Stronger by IC50 [1], values ahead:
IC50 [1] [nM],(fold-selectivity) Cbl-b and C-Cbl Selectivity [1] [x],IC50 [2] [nM],Fold of selectivity [3] [×],Kd [3] [nM],Kd [4] [nM],Compound
8.5,3.0,26,22,2,44,"CO[C@H]1C[C@](c2cccc(N3Cc4c(cc(CNC[C@@H]5[C@@H](C)C5(F)F)cc4C(F)(F)F)C3=O)c2)(c2nncn2C)C1 [Compound 503, 6-(((((1S,3R)-2,2-difluoro-3-methylcyclopropyl)methyl)amino)methyl)-2-(3-((1r,3S)-3-methoxy-1-(4-methyl-4H-1,2,4-triazol-3-yl)cyclobutyl)phenyl)-4-(trifluoromethyl)isoindolin-1-one]"
7.3,4.1,30,12,4.7,64,"CO[C@H]1C[C@](c2cccc(N3Cc4c(cc(CNC5CC(C#N)C5)cc4C(F)(F)F)C3=O)c2)(c2nncn2C)C1 (stereo partly drawn) [Compound 505, 3-(((2-(3-((1r,3r)-3-methoxy-1-(4-methyl-4H-1,2,4-triazol-3-yl)cyclobutyl)phenyl)-3-oxo-7-(trifluoromethyl)isoindolin-5-yl)methyl)amino)cyclobutanecarbonitrile]"
6.2,3.8,24,14,1.7,24,"CO[C@H]1C[C@](c2cccc(N3Cc4c(cc(CN[C@@]56CCC[C@@H]5C6)cc4C(F)(F)F)C3=O)c2)(c2nncn2C)C1 [Compound 508, 6-(((1R,5R)-bicyclo[3.1.0]hexan-1-ylamino)methyl)-2-(3-((1r,3R)-3-methoxy-1-(4-methyl-4H-1,2,4-triazol-3-yl)cyclobutyl)phenyl)-4-(trifluoromethyl)isoindolin-1-one]"
